SMILES strings stand for the structures. “Also recorded” adds a separate entry of the source.

Common to all, as to type: in vivo, mouse
The nature of series [1]: 13C3-lactate flux tracing after tail-vein injection (LC-MS). As for the experimental part:
It was next determined whether systemic lactate is capable of crossing the epithelial barrier into the gut lumen. […] At sacrifice, serum and plasma were immediately collected following cardiac puncture, and intestinal luminal contents were collected by removing the colon and cecum from the mice and gently sampling the inner surface of the tissue.
20% w/w ^13C3 sodium lactate (Cambridge Isotope Laboratories™) was diluted with PBS to a concentration of 400 mM in PBS. […] […] […] Whole blood was divided into two samples to obtain both serum and plasma, which was flash frozen in liquid nitrogen and stored at −80° C.
Immediately following cardiac puncture, mice were dissected to remove colon and cecum, and the contents were removed by squeezing with sterilized forceps into pre-weighed tubes. Contents were immediately flash frozen in liquid nitrogen. […]
Samples were analyzed for lactate and propionate by a Metabolomics Platform. LC-MS metabolomics were performed as previously described. 23 LC-MS traces were identified and integrated to quantify presence of ^13C0- and ^13C3-lactate isotopes.

The subject of a further series is mice. The experiment in a line: Colorectal propionate instillation, treadmill run to exhaustion. To be noted: 200 μL 150 mM sodium propionate in PBS into the colon 30 minutes prior to exercise, n=8, P=0.03. As for the experimental part: (§1) Treadmilling followed the same protocol as above. Mice were fasted 7 hours prior to exercise, to normalize metabolic profiles. 30 minutes prior to exercise, mice were treated with 200 μL of either PBS vehicle alone (n=8) or 150 mM sodium propionate in PBS (n=8) using a flexible gavage needle to introduce 200 μL of solution into the colon. Mice were run to exhaustion as above. This protocol was repeated for 3 consecutive days. On the first day of treatment, serum was collected 40 minutes post-exhaustion via tail-vein bleed and measured using the Ciraplex™ multiplex mouse cytokine assay (Aushon BioSystems™)

For the next series, the system named is inflammatory cytokines. The experiment in a line: Serum inflammatory cytokines after treadmill run, intrarectal propionate. To be noted: serum taken 40 minutes after treadmill running, intrarectal propionate versus vehicle. As for the experimental part: as §1
[2] abbreviates: 100 μL of 400 mM intravenously via tail vein, sacrifice 12 minutes after injection, LC-MS.

Take `[13CH3][13CH](O)[13C](=O)[O-].[Na+]` (centres unmarked) [^13C3 sodium lactate]: in series [1] (setting [2]), the “13C3-labelled lactate detected in tissues” value is “present in both the serum and plasma as well as in the lumen of the colons and ceca”; the “13C3-labelled propionate detected in tissues” value is on record as “No ^13C3-labelled propionate was detected in these tissues”. For the same compound, the “earliest time at which serum lactate levels returned to baseline after tail-vein injection” value in series [1] (tail-vein injection) was 12 min.

In the case of `CCC(=O)[O-].[Na+]` [propionate, sodium propionate], the “treadmill runtime versus pH-matched placebo vehicle” value in the series with mice is given as “increased treadmill runtime; also recorded: improves maximum run time”. Moreover, the “serum inflammatory cytokine levels” value in the series on inflammatory cytokines is “no significant differences in cytokine levels were found”.

(Values after patent US20220054559A1, “COMPOSITIONS AND METHODS FOR ENHANCING EXERCISE ENDURANCE” (PRESIDENT AND FELLOWS OF HARVARD COLLEGE, priority 2019, published 2022).)
